From ChEMBL document CHEMBL3217690, “Superiority of a novel EGFR targeted covalent inhibitor over its reversible counterpart in overcoming drug resistance” (Medchemcomm, 2012) come the findings set out here.

Test [1] deals with T1, Epidermal growth factor receptor (Homo sapiens, UniProt P00533). Nature of the test: Inhibition of wild type EGFR (unknown origin) using Y12-Sox peptide as substrate preincubated for 30 mins by fluorescence assay.
Test [2] concerns the target T2, Epidermal growth factor receptor (Homo sapiens, UniProt P00533, L858R/T790M). Description: Inhibition of EGFR L858R/T790M mutant (unknown origin) using Y12-Sox peptide as substrate preincubated for 30 mins by fluorescence assay. It counts as protein assay.
The next test concerns A-431. Nature of the test: Growth inhibition of human A431 cells harboring wild type EGFR assessed as reduction in cell viability after 72 hrs by CellTiter Glo assay. In kind it is functional. The settings on record: A-431, 72 h.
Test [3] is described as follows: Growth inhibition of human HCC827 cells harboring EGFR E746 to E750 deletion mutant assessed as reduction in cell viability after 72 hrs by CellTiter Glo assay. It counts as functional. The conditions noted are these: HCC827, 72 h.
Another test deals with NCI-H1975. Nature of the test: Growth inhibition of human NCI-H1975 cells harboring EGFR L858R/T790M mutant assessed as reduction in cell viability after 72 hrs by CellTiter Glo assay. In kind it is functional. The settings on record: NCI-H1975, 72 h.
For test [4], the target named is T1, Epidermal growth factor receptor. Nature of the test: Inhibition of EGF-induced EGFR autophosphorylation in human A431 cells after 1 hr by immunoblotting method. In kind it is cell-based, A-431.
Test [5] has the same target. Description: Inhibition of EGF-induced EGFR-mediated Akt phosphorylation in human A431 cells after 1 hr by immunoblotting method. In kind it is cell-based, A-431.
The target is the same in test [6]. Nature of the test: Inhibition of EGF-induced EGFR-mediated ERK phosphorylation in human A431 cells after 1 hr by immunoblotting method. In kind it is cell-based, A-431.
For test [7] the target is unchanged. Nature of the test: Inhibition of EGF-induced EGFR-mediated pS6 phosphorylation in human A431 cells after 1 hr by immunoblotting method. In kind it is cell-based, A-431.
Test [8] is described as follows: Inhibition of EGF-induced EGFR E746 to E750 deletion mutant autophosphorylation in human HCC827 cells after 1 hr by immunoblotting method. In kind it is cell-based. The conditions noted are these: HCC827, 1 h.
The nature of test [9]: Inhibition of EGF-induced EGFR E746 to E750 deletion mutant-mediated Akt phosphorylation in human HCC827 cells after 1 hr by immunoblotting method. It counts as cell-based. The settings on record: HCC827, 1 h.
A short description of test [10]: Inhibition of EGF-induced EGFR E746 to E750 deletion mutant-mediated pS6 phosphorylation in human HCC827 cells after 1 hr by immunoblotting method. It counts as cell-based. The settings on record: HCC827, 1 h.
For test [11], the target named is T2, Epidermal growth factor receptor. Description: Inhibition of EGF-induced EGFR L858R/T790M mutant autophosphorylation in human […] cells after 1 hr by immunoblotting method. In kind it is cell-based.
For test [12] the target is unchanged. Nature of the test: Inhibition of EGF-induced EGFR L858R/T790M mutant-mediated Akt phosphorylation in human […] cells after 1 hr by immunoblotting method. It counts as cell-based.
Test [13] shares this target. Description: Inhibition of EGF-induced EGFR L858R/T790M mutant-mediated ERK phosphorylation in human […] cells after 1 hr by immunoblotting method. In kind it is cell-based.
The target is the same in test [14]. Description: Inhibition of EGF-induced EGFR L858R/T790M mutant-mediated pS6 phosphorylation in human […] cells after 1 hr by immunoblotting method. In kind it is cell-based.
Test [15] deals with T1, Epidermal growth factor receptor. Nature of the test: Irreversible inhibition of EGF-induced EGFR autophosphorylation in human A431 cells assessed as residual activity compound preincubated at 1 uM for 1 to 8 hrs measured after 1 hr post compound washout by immunoblotting method. It counts as cell-based. The settings on record: A-431.
For test [16] the target is unchanged. Nature of the test: Covalent binding affinity to wild type EGFR (unknown origin) after 1 hr by mass spectrometry.
The species entered for a further test is Homo sapiens. Nature of the test: Covalent binding affinity to EGFR C773S mutant (unknown origin) after 1 hr by mass spectrometry.
The target of test [17] is T1, Epidermal growth factor receptor. Nature of the test: Inhibition of EGF-induced EGFR autophosphorylation in human A431 cells at 1 uM after 2 mins by immunoblotting method. In kind it is cell-based. The settings on record: A-431.
For test [18] the target is unchanged. Nature of the test: Inhibition of EGF-induced EGFR autophosphorylation in human A431 cells at 1 uM after 10 mins by immunoblotting method. It counts as cell-based. The settings on record: A-431.
The target is the same in test [19]. Description: Inhibition of EGF-induced EGFR autophosphorylation in human A431 cells at 1 uM after 30 mins by immunoblotting method. In kind it is cell-based. The conditions noted are these: A-431.
For test [20] the target is unchanged. Nature of the test: Reversible inhibition of EGF-induced EGFR autophosphorylation in human A431 cells assessed as residual activity compound preincubated at 1 uM for 1 hr measured after 1 hr post compound washout by immunoblotting method. In kind it is cell-based. The conditions noted are these: A-431.
Test [21] shares this target. Nature of the test: Reversible inhibition of EGF-induced EGFR autophosphorylation in human A431 cells assessed as residual activity compound preincubated at 1 uM for 1 hr measured after 8 hrs post compound washout by immunoblotting method. The conditions noted are these: A-431. In kind it is cell-based.

Activity calls are given as the source filed them. No cut-off for these calls is given here.

T2 sequence (P00533 25-1210 T790M/L858R limits assumed): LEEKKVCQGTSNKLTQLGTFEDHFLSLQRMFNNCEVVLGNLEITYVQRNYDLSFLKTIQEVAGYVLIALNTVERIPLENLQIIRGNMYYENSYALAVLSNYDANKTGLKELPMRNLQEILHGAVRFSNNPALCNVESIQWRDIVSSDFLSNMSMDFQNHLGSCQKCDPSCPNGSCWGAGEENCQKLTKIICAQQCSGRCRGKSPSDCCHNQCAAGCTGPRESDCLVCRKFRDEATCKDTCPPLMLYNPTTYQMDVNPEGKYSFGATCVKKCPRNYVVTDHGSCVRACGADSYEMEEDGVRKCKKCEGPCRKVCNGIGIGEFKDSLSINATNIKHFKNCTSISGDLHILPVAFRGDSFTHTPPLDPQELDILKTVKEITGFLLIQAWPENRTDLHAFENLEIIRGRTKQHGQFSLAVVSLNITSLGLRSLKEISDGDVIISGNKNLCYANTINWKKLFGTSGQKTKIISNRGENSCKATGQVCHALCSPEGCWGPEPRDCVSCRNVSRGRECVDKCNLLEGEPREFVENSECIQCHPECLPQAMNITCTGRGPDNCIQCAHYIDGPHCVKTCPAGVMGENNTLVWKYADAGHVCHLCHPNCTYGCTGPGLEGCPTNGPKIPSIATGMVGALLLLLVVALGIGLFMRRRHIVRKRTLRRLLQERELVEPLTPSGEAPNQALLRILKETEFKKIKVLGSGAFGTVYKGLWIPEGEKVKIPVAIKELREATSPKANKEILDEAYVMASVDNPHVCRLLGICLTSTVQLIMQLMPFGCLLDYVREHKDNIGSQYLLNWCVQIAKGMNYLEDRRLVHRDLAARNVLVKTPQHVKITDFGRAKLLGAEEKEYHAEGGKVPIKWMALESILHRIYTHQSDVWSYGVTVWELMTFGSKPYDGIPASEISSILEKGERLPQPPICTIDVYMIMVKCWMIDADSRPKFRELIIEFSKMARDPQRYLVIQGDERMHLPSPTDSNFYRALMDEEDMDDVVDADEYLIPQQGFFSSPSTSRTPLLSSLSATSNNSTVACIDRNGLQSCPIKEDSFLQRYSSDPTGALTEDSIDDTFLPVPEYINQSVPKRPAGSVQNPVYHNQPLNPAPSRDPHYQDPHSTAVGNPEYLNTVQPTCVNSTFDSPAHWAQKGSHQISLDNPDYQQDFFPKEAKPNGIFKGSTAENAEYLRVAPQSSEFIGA
T1 sequence (P00533 whole entry): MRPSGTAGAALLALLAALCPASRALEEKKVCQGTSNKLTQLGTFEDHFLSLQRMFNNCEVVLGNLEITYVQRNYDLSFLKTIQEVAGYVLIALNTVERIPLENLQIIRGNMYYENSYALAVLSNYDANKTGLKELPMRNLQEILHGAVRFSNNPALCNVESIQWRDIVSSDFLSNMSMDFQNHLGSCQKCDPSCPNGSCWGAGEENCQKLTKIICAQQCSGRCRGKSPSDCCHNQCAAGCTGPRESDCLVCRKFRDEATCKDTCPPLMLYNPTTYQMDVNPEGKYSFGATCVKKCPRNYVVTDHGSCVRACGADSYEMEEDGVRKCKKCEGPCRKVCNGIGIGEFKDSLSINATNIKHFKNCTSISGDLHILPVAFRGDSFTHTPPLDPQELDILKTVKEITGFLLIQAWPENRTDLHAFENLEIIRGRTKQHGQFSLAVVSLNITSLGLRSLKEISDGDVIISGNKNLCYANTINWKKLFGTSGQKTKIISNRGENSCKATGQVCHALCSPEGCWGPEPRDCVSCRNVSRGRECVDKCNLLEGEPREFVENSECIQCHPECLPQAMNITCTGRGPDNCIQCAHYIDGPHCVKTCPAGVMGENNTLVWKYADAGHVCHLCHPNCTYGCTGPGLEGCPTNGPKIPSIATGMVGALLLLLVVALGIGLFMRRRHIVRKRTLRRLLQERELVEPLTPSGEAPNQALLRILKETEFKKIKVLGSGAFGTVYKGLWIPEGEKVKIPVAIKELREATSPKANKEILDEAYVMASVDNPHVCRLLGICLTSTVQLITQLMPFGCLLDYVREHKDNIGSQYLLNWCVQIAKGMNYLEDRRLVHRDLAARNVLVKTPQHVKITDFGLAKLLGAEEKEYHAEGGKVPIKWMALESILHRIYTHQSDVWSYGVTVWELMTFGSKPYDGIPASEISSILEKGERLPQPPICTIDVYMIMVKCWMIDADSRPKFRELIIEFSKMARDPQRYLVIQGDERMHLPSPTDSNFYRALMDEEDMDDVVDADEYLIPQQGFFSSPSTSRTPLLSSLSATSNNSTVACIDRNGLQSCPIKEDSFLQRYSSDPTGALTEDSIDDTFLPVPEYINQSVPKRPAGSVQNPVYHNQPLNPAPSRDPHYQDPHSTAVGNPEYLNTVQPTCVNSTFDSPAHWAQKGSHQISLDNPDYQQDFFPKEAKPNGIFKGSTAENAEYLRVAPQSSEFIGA

On to `C=CC(=O)Nc1cccc(Nc2cc(Nc3cccc(Br)c3)ncn2)c1`, for which the IC50 in test [1] is < 1 nM; in [2] it was 5.4 nM; in test [4], 49 nM; in [5], 104 nM; in test [6] it was 509 nM; in test [7], 511 nM. The 50% growth inhibitory concentration (GI50) in the test on A-431 is 18 nM; in [3], < 5 nM; in the test on NCI-H1975, 134 nM. For the same compound, the EC50 in [8] is < 20 nM; in [9], < 20 nM; in [10], < 20 nM; in [11] it was 441 nM; in [12] it was 166 nM; in test [13], 172 nM. The same compound displayed an EC50 in test [14] of 427 nM. The inhibition entry in test [15] and in test [19] was “Active” in each case. Moreover, in test [16], the Activity was > 80%. Moreover, in the test listed under Homo sapiens, the outcome was inactive. In addition, the inhibition stood at 50% in [17] and 90% in test [18].
For the compound `CCC(=O)Nc1cccc(Nc2cc(Nc3cccc(Br)c3)ncn2)c1`, the IC50 in [1] was < 1 nM; in test [2], > 5000 nM; in [4], 166 nM; in [5], 136 nM; in test [6] it was 1160 nM; in test [7], 243 nM. Besides, the GI50 stood at 18 nM in the test with A-431, 15 nM in test [3] and 89 nM in the test with NCI-H1975. Moreover, the EC50 in [8] was 27 nM; in [9], < 20 nM; in [10] it was < 20 nM; in test [11], > 5000 nM; in test [12] it was > 4580 nM; in test [13], > 5000 nM. The EC50 in test [14] is > 5000 nM. In addition, the Activity was determined as 20% in test [20] and 60% in [21]. In addition, the outcome in test [16] was inactive.
